From US9518066B2, “GAK modulators” (KATHOLIEKE UNIVERSITEIT LEUVEN, priority 2013, dated 2016)

Target: T1, GAK kinase (Homo sapiens, UniProt O14976)
T1 construct: made in house; host or cells: E. coli host derived from the BL21 strain, infected with T7 phage
T1 sequence (O14976 1-1311): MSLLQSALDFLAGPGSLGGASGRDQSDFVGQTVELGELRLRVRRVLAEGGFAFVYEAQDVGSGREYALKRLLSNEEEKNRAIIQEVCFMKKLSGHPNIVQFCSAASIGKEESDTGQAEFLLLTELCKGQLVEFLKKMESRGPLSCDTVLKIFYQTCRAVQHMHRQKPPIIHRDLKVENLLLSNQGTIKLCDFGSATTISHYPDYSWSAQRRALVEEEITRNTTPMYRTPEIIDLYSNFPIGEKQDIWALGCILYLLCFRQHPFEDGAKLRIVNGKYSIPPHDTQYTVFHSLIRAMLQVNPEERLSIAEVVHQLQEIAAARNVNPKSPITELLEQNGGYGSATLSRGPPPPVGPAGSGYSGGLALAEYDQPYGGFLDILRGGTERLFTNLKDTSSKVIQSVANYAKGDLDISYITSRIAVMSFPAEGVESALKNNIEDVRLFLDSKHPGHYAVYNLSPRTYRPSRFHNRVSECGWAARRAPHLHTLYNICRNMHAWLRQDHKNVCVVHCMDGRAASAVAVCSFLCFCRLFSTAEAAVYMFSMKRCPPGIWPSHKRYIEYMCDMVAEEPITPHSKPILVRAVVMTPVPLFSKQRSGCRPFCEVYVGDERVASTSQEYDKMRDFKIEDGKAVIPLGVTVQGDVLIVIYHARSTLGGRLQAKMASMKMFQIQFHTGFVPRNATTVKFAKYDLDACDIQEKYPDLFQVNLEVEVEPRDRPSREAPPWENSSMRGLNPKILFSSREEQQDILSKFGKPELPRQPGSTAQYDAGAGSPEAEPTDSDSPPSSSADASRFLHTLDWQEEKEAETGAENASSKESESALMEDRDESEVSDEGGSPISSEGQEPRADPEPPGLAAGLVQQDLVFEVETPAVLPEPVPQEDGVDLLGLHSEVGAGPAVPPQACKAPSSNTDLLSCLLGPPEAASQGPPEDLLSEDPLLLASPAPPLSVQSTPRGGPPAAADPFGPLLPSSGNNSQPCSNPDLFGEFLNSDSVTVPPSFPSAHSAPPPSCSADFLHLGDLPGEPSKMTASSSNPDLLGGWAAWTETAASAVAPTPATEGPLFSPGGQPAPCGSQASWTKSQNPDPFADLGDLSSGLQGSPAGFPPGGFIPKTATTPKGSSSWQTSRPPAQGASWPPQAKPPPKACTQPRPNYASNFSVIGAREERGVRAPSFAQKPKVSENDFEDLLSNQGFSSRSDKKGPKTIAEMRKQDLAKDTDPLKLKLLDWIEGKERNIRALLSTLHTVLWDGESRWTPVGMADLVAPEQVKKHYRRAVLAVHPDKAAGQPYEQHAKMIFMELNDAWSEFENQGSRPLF
Assay: GAK binding assay (T7 phage kinase competition binding)
Settings: for remaining binding at 10 µM: single concentration of 10 μM, lower numbers indicate stronger hits, read-out: % Ctrl; for Kd: determined for selected compounds with % control <5 at 10 μM
Experimental: The compounds of the invention were assayed for their GAK kinase binding affinity using the protocols, as described in Fabian, M. A. et al. A small molecule-kinase interaction map for clinical kinase inhibitors. Nat. Biotechnol.
T7 kinase-tagged phage strains were grown in parallel in 24- or 96-well blocks in an E. coli host derived from the BL21 strain. E. coli were grown to log phase and infected with T7 phage from a frozen stock (multiplicity of infection ˜0.1) and incubated with shaking at 32° C. until lysis (˜90 min). The lysates were centrifuged (6,000 g) and filtered ([…]) to remove cell debris. […] The liganded beads were blocked with excess biotin and washed with blocking buffer (SeaBlock (Pierce), 1% BSA, 0.05% Tween 20, 1 mM DTT) to remove unbound ligand and to reduce nonspecific phage binding. […] Test compounds were prepared as 1,000× stocks in DMSO and rapidly diluted into the aqueous environment (0.1% DMSO final). DMSO (0.1%) was added to control assays lacking a test compound. All reactions were carried out in polystyrene 96-well plates that had been pretreated with blocking buffer in a final volume of 0.1 ml. […] The phage titer in the eluates was measured by standard plaque assays or by quantitative PCR.
The compounds were tested at a single concentration of 10 μM.
[formula] Binding Constant Measurements
Kd(probe) is the binding constant for the interaction between the kinase and the immobilized ligand, [Probe] is the concentration of the immobilized ligand and [test]1/2 is the concentration of the free test compound at the midpoint of the transition. If [Probe] is below Kd(probe) the expression simplifies to Kd(test)=[test]1/2. Under these conditions the binding constants measured for the interaction between kinases and test compounds (Kd(test)) are therefore independent of the affinity of the immobilized ligand for the kinase (Kd(probe)). T7 phage grow to a titer of 10^8-10^10 plaque forming units (PFU)/ml, and the concentration of phage-tagged kinase in the binding reaction is therefore in the low picomolar range. […] Clustering and visualization was performed with Cluster 3.0 (M. Eisen, Stanford University) and Mapletree software (M. Eisen, Stanford University; L. Simirenko, Lawrence Berkeley National Lab).

remaining binding at 10 µM [%]	Kd [nM]	Molecule	% Ctrl (10 µM) [%]
–	–	6-bromo-6-ethanolamino-isothiazolo[4,3-b]pyridine [Example 12]	62
97	–	Nc1snc2cc(Br)cnc12 [Example 3, 3-amino-6-bromo-Isothiazolo[4,3-b]pyridine]	–
50	–	Brc1cnc2c(N3CCOCC3)snc2c1 [Example 11, 6-bromo-3-morpholino-isothiazolo[4,3-b]pyridine]	–
100	–	COc1snc2cc(Br)cnc12 [Example 14, 3-methoxy-6-bromo-isothiazolo[4,3-b]pyridine]	–
9.4	–	COc1snc2cc(-c3ccccc3)cnc12 [Example 33, 3-methoxy-6-phenyl-isothiazolo[4,3-b]pyridine]	–
93	–	COc1snc2cc(-c3cccnc3)cnc12 [Example 35, 3-methoxy-6-(3-pyridyl)-isothiazolo[4,3-b]pyridine]	–
19	–	COc1ccc(-c2cnc3c(OC)snc3c2)cc1OC [Example 36, 3-methoxy-6-(3,4-dimethoxyphenyl)-isothiazolo[4,3-b]pyridine]	–
2.8	19	COC(=O)c1ccc(-c2cnc3c(N4CCOCC4)snc3c2)cc1OC [Example 46, Methyl 2-methoxy-4-(3-morpholinoisothiazolo[4,3-b]pyridin-6-yl)benzoate]	–
9	–	COC(=O)c1ccc(-c2cnc3c(N4CCOCC4)snc3c2)cc1 [Example 53, Methyl 4-(3-morpholinoisothiazolo[4,3-b]pyridin-6-yl)benzoate]	–
0.05	88	CNC(=O)c1ccc(-c2cnc3c(N4CCOCC4)snc3c2)cc1 [Example 54, N-Methyl-4-(3-morpholinoisothiazolo[4,3-b]pyridin-6-yl)benzamide]	–
1.1	180	COc1cc(Br)c(-c2cnc3c(N4CCOCC4)snc3c2)cc1OC [Example 60, 4-(6-(2-bromo-4,5-dimethoxyphenyl)isothiazolo[4,3-b]pyridin-3-yl)morpholine]	–
0.05	180	COc1cccc(-c2cnc3c(N4CCOCC4)snc3c2)c1 [Example 61, 4-(6-(3-methoxyphenyl)isothiazolo[4,3-b]pyridin-3-yl)morpholine]	–
0	82	COc1ccc(-c2cnc3c(N4CCOCC4)snc3c2)cc1OC(C)=O [Example 62, 2-methoxy-5-(3-morpholinoisothiazolo[4,3-b]pyridin-6-yl)phenyl acetate]	–
0.6	140	COc1ccc(-c2cnc3c(N4CCOCC4)snc3c2)cc1 [Example 63, 4-(6-(4-methoxyphenyl)isothiazolo[4,3-b]pyridin-3-yl)morpholine]	–
0	31	COc1ccc(-c2cnc3c(N4CCC(=O)CC4)snc3c2)cc1OC [Example 65, 1-(6-(3,4-dimethoxyphenyl)isothiazolo[4,3-b]pyridin-3-yl)piperidin-4-one]	–
0.85	210	COc1ccc(-c2cnc3c(NCCCCCO)snc3c2)cc1OC [Example 67, 5-(6-(3,4-dimethoxyphenyl)isothiazolo[4,3-b]pyridin-3-ylamino)pentan-1-ol]	–
0.05	69	COc1ccc(-c2cnc3c(N4CCCC(O)C4)snc3c2)cc1OC (stereo not shown) [Example 68, 1-(6-(3,4-dimethoxyphenyl)isothiazolo[4,3-b]pyridin-3-yl)piperidin-3-ol]	–
2.6	330	COc1ccc(-c2cnc3c(NCC(O)CO)snc3c2)cc1OC (stereo not shown) [Example 71, 3-(6-(3,4-dimethoxyphenyl)isothiazolo[4,3-b]pyridin-3-ylamino)propane-1,2-diol]	–
40	–	CCOC(=O)N1CCC(Nc2snc3cc(-c4ccc(OC)c(OC)c4)cnc23)CC1 [Example 72, ethyl 4-(6-(3,4-dimethoxyphenyl)isothiazolo[4,3-b]pyridin-3-ylamino)piperidine-1-carboxylate]	–
0.05	210	CCN(CC)c1snc2cc(-c3ccc(OC)c(OC)c3)cnc12 [Example 79, 6-(3,4-dimethoxyphenyl)-N,N-diethylisothiazolo[4,3-b]pyridin-3-amine]	–
12	–	COc1ccc(-c2cnc3c(N4CCC5(CC4)OCCO5)snc3c2)cc1OC [Example 81, 8-(6-(3,4-dimethoxyphenyl)isothiazolo[4,3-b]pyridin-3-yl)-1,4-dioxa-8-azaspiro[4.5]decane]	–
0.15	260	COc1ccc(-c2cnc3c(-c4ccccc4)snc3c2)cc1OC [Example 82, 6-(3,4-dimethoxyphenyl)-3-phenylisothiazolo[4,3-b]pyridine]	–
0.05	52	COc1ccc(-c2cnc3c(-c4ccncc4)snc3c2)cc1OC [Example 83, 6-(3,4-dimethoxyphenyl)-3-(pyridin-4-yl)isothiazolo[4,3-b]pyridine]	–
0	140	COc1ccc(-c2cnc3c(-c4ccsc4)snc3c2)cc1OC [Example 84, 6-(3,4-dimethoxyphenyl)-3-(thiophen-3-yl)isothiazolo[4,3-b]pyridine]	–
31	–	COc1ccc(-c2cnc3csnc3c2)cc1OC [Example 85, 6-(3,4-dimethoxyphenyl)isothiazolo[4,3-b]pyridine]	–
92	–	COc1cc(Br)c(-c2cnc3c(N4CCC(C)CC4)snc3c2)cc1OC [Example 86, 6-(2-bromo-4,5-dimethoxyphenyl)-3-(4-methylpiperidin-1-yl)isothiazolo[4,3-b]pyridine]	–
4.3	330	CCOc1snc2cc(-c3cc(OC)c(OC)cc3Br)cnc12 [Example 87, 6-(2-bromo-4,5-dimethoxyphenyl)-3-ethoxyisothiazolo[4,3-b]pyridine]	–

Molecule	remaining binding at 10 µM [%]	Kd [nM]	% Ctrl (10 µM) [%]
COc1snc2cc(-c3ccsc3)cnc12 [Example 37, 3-methoxy-6-(3-thienyl)-isothiazolo[4,3-b]pyridine]	22	–	–
